Results from the supplement of paper PMC10307832.

Key:
Assay in all cases: relative viability (nuclei count vs DMSO), 5 days (fraction); higher = more cells survive
[1] = tested on: A-427
Procedure, shortened: (§1)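 Lung cancer cell lines in 1536-well plates got either a single drug or a fixed anchor-drug dose together with five library-drug doses (not always all listed) in √10 steps, by pin tool, on the day after seeding. Nuclei were counted after 5 days, and relative viability is the treated-to-vehicle ratio of nuclei counts. Values are medians of duplicate plates.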

[2] = tested on: H3255
Procedure, shortened: as §1

[3] = tested on: HARA
Procedure, shortened: as §1

[4] = tested on: HCC-15
Procedure, shortened: as §1

[5] = tested on: HCC-366
Procedure, shortened: as §1

[6] = tested on: LXF-289
Procedure, shortened: as §1

[7] = tested on: NCI-H1437
Procedure, shortened: as §1

[8] = tested on: NCI-H1755
Procedure, shortened: as §1

[9] = tested on: NCI-H1793
Procedure, shortened: as §1

[10] = tested on: NCI-H1915
Procedure, shortened: as §1

[11] = tested on: NCI-H1975
Procedure, shortened: as §1

[12] = tested on: NCI-H2009
Procedure, shortened: as §1

[13] = tested on: NCI-H2023
Procedure, shortened: as §1

[14] = tested on: NCI-H2405
Procedure, shortened: as §1

[15] = tested on: NCI-H3122
Procedure, shortened: as §1

[16] = tested on: NCI-H441
Procedure, shortened: as §1

[17] = tested on: NCI-H460
Procedure, shortened: as §1

[18] = tested on: NCI-H596
Procedure, shortened: as §1

[19] = tested on: NCI-H650
Procedure, shortened: as §1

[20] = tested on: PC-14
Procedure, shortened: as §1

[21] = tested on: PC-3 [JPC-3]
Procedure, shortened: as §1

[22] = tested on: SK-LU-1
Procedure, shortened: as §1

[23] = tested on: UMC-11
Procedure, shortened: as §1

Cc1cnc(-c2cnc(NCCNc3ccc(C#N)cn3)nc2-c2ccc(Cl)cc2Cl)[nH]1 + O=C(c1cc(Cc2n[nH]c(=O)c3ccccc23)ccc1F)N1CCN(C(=O)C2CC2)CC1 [Olaparib] (partner 8 µM)
relative viability ([1]; first compound 0.08 µM): 0.759
relative viability ([1]; first compound 0.253 µM): 0.711
relative viability ([1]; first compound 0.8 µM): 0.822
relative viability ([1]; first compound 2.53 µM): 0.743
relative viability ([2]; first compound 0.08 µM): 0.585
relative viability ([2]; first compound 0.253 µM): 0.543
relative viability ([2]; first compound 0.8 µM): 0.542
relative viability ([2]; first compound 2.53 µM): 0.563
relative viability ([3]; first compound 0.08 µM): 0.509
relative viability ([3]; first compound 0.253 µM): 0.72
relative viability ([3]; first compound 0.8 µM): 0.764
relative viability ([3]; first compound 2.53 µM): 0.894
relative viability ([4]; first compound 0.08 µM): 0.77
relative viability ([4]; first compound 0.253 µM): 0.653
relative viability ([4]; first compound 0.8 µM): 0.721
relative viability ([4]; first compound 2.53 µM): 0.737
relative viability ([5]; first compound 0.08 µM): 0.375
relative viability ([5]; first compound 0.253 µM): 0.297
relative viability ([5]; first compound 0.8 µM): 0.338
relative viability ([6]; first compound 0.08 µM): 1.04
relative viability ([6]; first compound 0.253 µM): 1
relative viability ([6]; first compound 0.8 µM): 1.11
relative viability ([6]; first compound 2.53 µM): 1.11
relative viability ([7]; first compound 0.08 µM): 0.605
relative viability ([7]; first compound 0.253 µM): 0.606
relative viability ([7]; first compound 0.8 µM): 0.596
relative viability ([7]; first compound 2.53 µM): 0.598
relative viability ([8]; first compound 0.08 µM): 0.941
relative viability ([8]; first compound 0.253 µM): 0.819
relative viability ([8]; first compound 0.8 µM): 0.804
relative viability ([8]; first compound 2.53 µM): 0.869
relative viability ([9]; first compound 0.08 µM): 1.01
relative viability ([9]; first compound 0.253 µM): 0.755
relative viability ([9]; first compound 0.8 µM): 0.957
relative viability ([9]; first compound 2.53 µM): 0.867
relative viability ([10]; first compound 0.08 µM): 0.253
relative viability ([10]; first compound 0.8 µM): 0.264
relative viability ([10]; first compound 2.53 µM): 0.239
relative viability ([11]; first compound 0.08 µM): 0.759
relative viability ([11]; first compound 0.253 µM): 0.715
relative viability ([11]; first compound 0.8 µM): 0.672
relative viability ([11]; first compound 2.53 µM): 0.502
relative viability ([12]; first compound 0.08 µM): 0.746
relative viability ([12]; first compound 0.253 µM): 0.661
relative viability ([12]; first compound 0.8 µM): 0.697
relative viability ([12]; first compound 2.53 µM): 0.605
relative viability ([13]; first compound 0.08 µM): 0.502
relative viability ([13]; first compound 0.253 µM): 0.51
relative viability ([13]; first compound 0.8 µM): 0.439
relative viability ([13]; first compound 2.53 µM): 0.36
relative viability ([14]; first compound 0.08 µM): 0.882
relative viability ([14]; first compound 0.253 µM): 0.771
relative viability ([14]; first compound 0.8 µM): 0.88
relative viability ([14]; first compound 2.53 µM): 0.661
relative viability ([15]; first compound 0.08 µM): 0.568
relative viability ([15]; first compound 0.8 µM): 0.651
relative viability ([15]; first compound 2.53 µM): 0.545
relative viability ([16]; first compound 0.08 µM): 0.568
relative viability ([16]; first compound 0.8 µM): 0.536
relative viability ([16]; first compound 2.53 µM): 0.387
relative viability ([17]; first compound 0.08 µM): 0.323
relative viability ([17]; first compound 0.8 µM): 0.342
relative viability ([17]; first compound 2.53 µM): 0.402
relative viability ([18]; first compound 0.08 µM): 1.09
relative viability ([18]; first compound 0.253 µM): 0.736
relative viability ([18]; first compound 0.8 µM): 0.775
relative viability ([18]; first compound 2.53 µM): 0.724
relative viability ([19]; first compound 0.08 µM): 0.41
relative viability ([19]; first compound 0.253 µM): 0.36
relative viability ([19]; first compound 0.8 µM): 0.479
relative viability ([19]; first compound 2.53 µM): 0.393
relative viability ([20]; first compound 0.08 µM): 0.242
relative viability ([20]; first compound 0.253 µM): 0.235
relative viability ([20]; first compound 0.8 µM): 0.296
relative viability ([20]; first compound 2.53 µM): 0.233
relative viability ([21]; first compound 0.08 µM): 1.1
relative viability ([21]; first compound 0.253 µM): 1.08
relative viability ([21]; first compound 0.8 µM): 1.09
relative viability ([21]; first compound 2.53 µM): 1.04
relative viability ([22]; first compound 0.08 µM): 0.455
relative viability ([22]; first compound 0.253 µM): 0.479
relative viability ([22]; first compound 0.8 µM): 0.463
relative viability ([22]; first compound 2.53 µM): 0.472
relative viability ([23]; first compound 0.08 µM): 0.413
relative viability ([23]; first compound 0.253 µM): 0.997
relative viability ([23]; first compound 0.8 µM): 0.343
relative viability ([23]; first compound 2.53 µM): 0.352
